Assay results reported in US20100168182A1, “COMPOUNDS AND COMPOSITIONS AS KINASE INHIBITORS” (IRM LLC, priority 2006, published 2010).

Key:
[1] = molecular target: T1, Ba/F3 cells transformed with human Tel-TrkB (ETV6-NTRK2) (Homo sapiens, UniProt Q16620); experiment: Inhibition of cellular TrkB dependent proliferation (Ba/F3 Tel-TrkB); format: cell-based; details: urea versus amide linkage
T1 construct: expressed in transfected cells; host or cells: Ba/F3 murine hematopoietic progenitor cell line; the other entry of the earlier key: ETV6 (P41212, Transcription factor ETV6)
Protocol: (§1) Inhibition of Cellular TrkA, trkB or TrkC Dependent Proliferation
(§2) The cell line used is the Ba/F3 murine hematopoietic progenitor cell line transformed with human Tel-TrkA, Tel-TrkB or Tel-TrkC cDNAs (Ba/F3 EN A/B/C). These cells are maintained in RPMI/10% fetal bovine serum (RPMI/F B S) supplemented with penicillin 50 μg/mL, streptomycin 50 μg/mL and L-glutamine 200 mM. Untransformed Ba/F3 cells are similarly maintained with the addition 5 ng/ml of murine recombinant IL3.
(§3) 50 μl of a Ba/F3 or Ba/F3 EN A/B/C cell suspension are plated in Greiner 384 well microplates (white) at a density of 2000 cells per well. 50 nl of serially diluted test compound (1 0-0.0001 mM in DMSO solution) is added to each well. […] The emited luminiscence is quantified using the Acquest™ system (Molecular Devices).
(§4) Compounds of the invention are tested for their antiproliferative effect on Ba/F3 cells expressing either Tel-TrkA, Tel-TrkB or Tel-TrkC and an additional panel of 34 selected diverse kinases activated by fusion to the dimerizing partners Bcr or Tel (Abl, AlK, BMX, EphA3, EphB2, FGFR2, FGFR3, FGFR4, FGR, FLT1, FLT3, FLT4, FMS, IGF1R, InsR, JAK1, JAK2, JAK3, KDR, Kit, Lck, Lyn, MER, MET, PDGFRb, RET, RON, Ros-1, Src, Syk, TIE2, TYK2, Tie1, ZAP70). […] The IC50 values of the compounds in the different cell lines were determined from the dose response curves obtained as describe above.

[2] = Measuring bioavailability: plasma concentration in mice; format: in vivo, male Balb/c mice; details: ratio compound 17 / compound A
Protocol: Five- to six-week old male Balb/c mice are housed at room temperature (18 to 22° C.) and humidity in the range 40-70%. The animal weights at the time of compound administration range from 20 to 25 grams. The mice are fed a normal diet and have free access to water at all times, before and during experiments. Fasted animals are studied on an infrequent basis. To maximize drug absorption via oral gavage and/or study food effects, animals are fasted the night before dosing and 4 hours thereafter. Animal experiments are performed according to the Animal Welfare Act and the Guide for the Care and Use of Laboratory Animals approved by the Institutional Animal Care and Use Committee (IACUC).
Test compounds are dissolved in a vehicle for dosing at a final concentration of 0.5 to 10 mg/mL. Test compounds are dosed intravenously via the lateral tail vein and orally using a gavage needle. Dosing procedures, dosing volumes, and the selection of dosing vehicles or formulations adhered to the Guidelines issued by the Novartis Pharmacology Council entitled “Preparation and Administration of Experimental Formulation in Pre-ESC Phase”. Briefly, i.v. doses are administered in solutions that are neutral and isotonic aqueous based and oral doses are administered in either solution (with or without co-solvent) or suspension.
Blood samples are drawn via retro orbital sinus. For ease of handling, animals are sometimes anesthetized under isoflurane vapor. Approximately five 50 μl samples of blood are removed each sampling time.
Pharmacokinetic parameters are calculated by non-compartmental regression analysis using Winnonlin 4.0 software (Pharsight, Mountain View, Calif., USA). The typical intravenous and oral dosing study in mice would results in the reporting of the following pharmacokinetic parameters: i.v. dosing: Vss, CL, AUC, Cmax, Tmax, Clast, Tlast and T1/2; and p.o. dosing: F, AUC, Cmax, Tmax, Clast, Tlast and T1/2.

[3] = molecular target: T2, Ba/F3 cells transformed with human Tel-TrkA (ETV6-NTRK1) (Homo sapiens, UniProt P04629); experiment: Inhibition of cellular TrkA dependent proliferation (Ba/F3 Tel-TrkA); format: cell-based; details: urea versus amide linkage
T2 construct: expressed in transfected cells; host or cells: Ba/F3 murine hematopoietic progenitor cell line; the other entry of the earlier key: ETV6 (P41212, Transcription factor ETV6)
Protocol: as §1, §2, §3, §4

[4] = tested on: Ba/F3 cells transformed with human Tel-TrkC (ETV6-NTRK3); experiment: Inhibition of cellular TrkC dependent proliferation (Ba/F3 Tel-TrkC); format: cell-based; details: urea versus amide linkage
Protocol: as §1, §2, §3, §4

T1 sequence (Q16620 538-822 limits assumed): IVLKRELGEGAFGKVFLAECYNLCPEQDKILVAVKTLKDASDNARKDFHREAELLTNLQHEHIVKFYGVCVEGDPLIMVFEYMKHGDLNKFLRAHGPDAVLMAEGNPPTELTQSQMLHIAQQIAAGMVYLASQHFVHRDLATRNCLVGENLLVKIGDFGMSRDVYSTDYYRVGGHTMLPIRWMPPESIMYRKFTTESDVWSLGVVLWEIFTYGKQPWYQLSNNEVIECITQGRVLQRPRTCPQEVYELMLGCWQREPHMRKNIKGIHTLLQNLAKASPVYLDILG
T2 sequence (P04629 510-796 limits assumed): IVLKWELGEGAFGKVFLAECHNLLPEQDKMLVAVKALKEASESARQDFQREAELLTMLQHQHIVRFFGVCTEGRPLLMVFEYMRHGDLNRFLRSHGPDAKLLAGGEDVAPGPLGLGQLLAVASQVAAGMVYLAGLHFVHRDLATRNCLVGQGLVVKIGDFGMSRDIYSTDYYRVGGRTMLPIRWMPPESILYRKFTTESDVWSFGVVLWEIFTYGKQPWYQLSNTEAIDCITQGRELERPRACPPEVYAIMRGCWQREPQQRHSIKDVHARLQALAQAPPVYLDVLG

| potency for TrkB relative to the equivalent amide-linked compound (compound A) [1] | plasma concentration relative to compound A ([2]; at 30 minutes) [times] | plasma concentration relative to compound A ([2]; at 1 hour) [times] | plasma concentration relative to compound A ([2]; at 3 hours) [times] | plasma concentration relative to compound A ([2]; at 5 hours) [times] | potency for TrkA relative to the equivalent amide-linked compound (compound A) [3] | melting point [°C] | Structure (SMILES) | potency for TrkC relative to the equivalent amide-linked compound (compound A) [4] |
| --- | --- | --- | --- | --- | --- | --- | --- | --- |
| at least 132 fold | 2.2 | 4.1 | 4.7 | 2.3 | at least 132 fold | – | O=C(Nc1cccc(Nc2ccc3c(c2)NC(=O)/C3=C\c2ccc[nH]2)c1)Nc1ccc(F)cc1F [Compound 17, 1-(2,4-Difluoro-phenyl)-3-{3-[2-oxo-3-(1H-pyrrol-2-ylmethylene)-2,3-dihydro-1H-indol-6-ylamino]-phenyl}-urea] | at least 132 fold |
| – | – | – | – | – | – | 253 to 256 | O=C(Nc1cccc(Nc2ccc3c(c2)NC(=O)/C3=C\c2ccc[nH]2)c1)Nc1cccc(C(F)(F)F)c1 [Example 1, 1-{3-[2-oxo-3-(1H-pyrrol-2-ylmethylene)-2,3-dihydro-1H-indol-6-ylamino]phenyl}-3-(3-trifluoromethylphenyl)urea] | – |
| – | – | – | – | – | – | 224 to 226 | O=C(Nc1cccc(Nc2ccc3c(c2)NC(=O)/C3=C\c2ccc[nH]2)c1)Nc1cc(F)c(F)cc1F [Example 3, 1-{3-[2-oxo-3-(1H-pyrrol-2-ylmethylene)-2,3-dihydro-1H-indol-6-ylamino]phenyl}-3-(2,4,5-trifluorophenyl)urea] | – |
